According to patent US20150011751A1, “NOVEL TRIAZINE DERIVATIVE” (CARNA BIOSCIENCES, INC., priority 2012, published 2015):

molecular target: Dephosphorylated BTK (Homo sapiens, UniProt Q06187); test: Test of activity inhibition against dephosphorylated BTK (mobility shift assay)
Sequence (Q06187 whole entry): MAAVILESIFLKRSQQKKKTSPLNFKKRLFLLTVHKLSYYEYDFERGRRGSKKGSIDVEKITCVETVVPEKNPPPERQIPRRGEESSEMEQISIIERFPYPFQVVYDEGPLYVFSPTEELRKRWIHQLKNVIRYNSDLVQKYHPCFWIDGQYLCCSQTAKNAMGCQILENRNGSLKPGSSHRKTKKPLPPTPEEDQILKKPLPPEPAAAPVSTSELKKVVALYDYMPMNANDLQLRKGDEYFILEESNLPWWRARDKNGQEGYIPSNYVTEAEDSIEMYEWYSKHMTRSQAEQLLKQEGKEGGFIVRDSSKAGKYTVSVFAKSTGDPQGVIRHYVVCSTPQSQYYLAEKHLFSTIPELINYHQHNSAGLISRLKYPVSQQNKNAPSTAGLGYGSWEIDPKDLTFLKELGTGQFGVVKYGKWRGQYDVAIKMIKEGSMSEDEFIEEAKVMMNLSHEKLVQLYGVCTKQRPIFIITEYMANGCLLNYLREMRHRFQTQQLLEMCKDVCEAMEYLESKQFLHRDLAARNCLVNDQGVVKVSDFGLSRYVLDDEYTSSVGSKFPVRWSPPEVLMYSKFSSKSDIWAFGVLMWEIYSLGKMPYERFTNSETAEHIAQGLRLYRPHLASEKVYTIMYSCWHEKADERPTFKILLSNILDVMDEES

SMILES | IC50 [nM]
Cc1c(NC(=O)c2ccc(C(C)(C)C)cc2)cccc1-c1ncnc(Nc2ccc(C(=O)NCCN(C)C)cc2)n1 [Example 17, 4-(tert-Butyl)-N-(3-{4-[(4-{[2-(dimethylami-no)ethyl]carbamoyl}phe-nyl)amino]-1,3,5-tri-azin-2-yl)-2-methyl-phenyl)benzamide] | 5.1
Cc1c(NC(=O)c2ccc(C(C)(C)C)cc2)cccc1-c1ncnc(Nc2ccc(C(=O)NC(CO)CO)cc2)n1 [Example 19, 4-(tert-Butyl)-N-{3-[4-({4-[(1,3-dihydroxypropan-2-yl)carbamoyl]phenyl}amino)-1,3,5-triazin-2-yl]-2-methyl-phenyl}benzamide] | 6.1
Cc1c(NC(=O)c2ccc(C(C)(C)C)cc2)cccc1-c1ncnc(Nc2ccc(C3C(=O)N(C)CCN3C)cc2)n1 (centres unmarked) [Example 37, 4-(tert-Butyl)-N-[3-(4-{[4-(1,4-dimethyl-3-oxopiperazin-2-yl)phe-nyl]amino}-1,3,5-tri-azin-2-yl)-2-methyl-phenyl]benzamide] | 2.7
CN1CCN(C)C(c2ccc(Nc3nc(N)nc(-c4cccc(N5CCc6cc(C7CC7)cc(F)c6C5=O)c4CO)n3)cc2)C1=O (centres unmarked) [Example 47, 2-[3-(5-Amino-6-{[4-(1,4-dimethyl-3-oxopipera-zin-2-yl)phenyl]ami-no}-1,3,5-triazin-2-yl)-2-(hydroxymethyl)phenyl]-6-cyclopropyl-8-fluoro-3,4-dihydro-isoquinolin-1(2H)-one] | 1.6
COCCOc1ccc(Nc2nc(N)nc(-c3cccc(N4CCc5cc(C6CC6)cc(F)c5C4=O)c3CO)n2)cc1OCCOC [Example 48, 2-[3-(4-Amino-6-{[3,4-bis(2-methoxyethoxy)phenyl]amino}-1,3,5-tri-azin-2-yl}-2-(hydroxy-methyl)phenyl]-6-cyclo-propyl-8-fluoro-3,4-dihydroisoquinolin-1(2H)-one] | 3.4
Nc1nc(Nc2ccc(Cn3cncn3)cc2)nc(-c2cccc(N3CCc4cc(C5CC5)cc(F)c4C3=O)c2CO)n1 [Example 49, 2-{3-[4-({4-[(1H-1,2,4-Triazol-1-yl)methyl]phenyl}amino)-6-amino-1,3,5-triazin-2-yl]-2-(hydroxymethyl)phe-nyl}-6-cyclopropyl-8-fluoro-3,4-dihydroiso-quinolin-1(2H)-one] | 1.1
Nc1nc(Nc2ccc(Cn3cccn3)cc2)nc(-c2cccc(N3CCc4cc(C5CC5)cc(F)c4C3=O)c2CO)n1 [Example 50, 2-{3-[4-({4-[(1H-Pyra-zol-1-yl)methyl]phenyl}amino)-6-amino-1,3,5-triazin-2-yl]-2-(hy-droxymethyl)phenyl}-6-cyclopropyl-8-fluoro-3,4-dihydroisoquino-lin-1(2H)-one] | 1
Nc1nc(Nc2cccc(Cn3cncn3)c2)nc(-c2cccc(N3CCc4cc(C5CC5)cc(F)c4C3=O)c2CO)n1 [Example 51, 2-{3-[4-({3-[(1H-1,2,4-Triazol-1-yl)methyl]phenyl}amino)-6-amino-1,3,5-triazin-2-yl]-2-(hydroxymethyl)phe-nyl}-6-cyclopropyl-8-fluoro-3,4-dihydroiso-quinolin-1(2H)-one] | 2
CC(C)(C)c1ccc(C(=O)Nc2cccc(-c3nc(N)nc(Nc4ccc(O)cc4)n3)c2CO)cc1 [Example 65, N-(3-{4-Amino-6-[(4-hy-droxyphenyl)amino]-1,3,5-triazin-2-yl}-2-(hydroxymethyl)phenyl)-4-(tert-butyl)benza-mide] | 0.6

The remaining lines, values ahead:

IC50 [nM] | SMILES
3.4 | Cc1c(NC(=O)c2ccc(C(C)(C)C)cc2)cccc1-c1ncnc(Nc2ccc(N3CCOCC3)cc2)n1 [Example 24, 4-(tert-Butyl)-N-(2-meth-yl-3-{4-[(4-morpho-linophenyl)amino]-1,3,5-triazin-2-yl}phenyl) benzamide]
3.5 | Cc1c(NC(=O)c2ccc(C(C)(C)C)cc2)cccc1-c1ncnc(Nc2ccc(CN3CCOCC3)cc2)n1 [Example 25, 4-(tert-Butyl)-N-[2-meth-yl-3-(4-{[4-(morpho-linomethyl)phenyl]ami-no}-1,3,5-triazin-2-yl)phenyl]benzamide]
4 | COCCOc1ccc(Nc2nc(N)nc(-c3cccc(NC(=O)c4ccc(C(C)(C)C)cc4)c3C)n2)cc1 [Example 34, N-[3-(4-Amino-6-{[4-(2-methoxyethoxy)phenyl]amino}-1,3,5-triazin-2-yl)-2-methylphenyl]-4-(tert-butyl)benz-amide]
1.2 | Cc1c(NC(=O)c2ccc(C(C)(C)C)cc2)cccc1-c1nc(N)nc(Nc2ccc(CN3CCOCC3)cc2)n1 [Example 38, N-[3-(4-Amino-6-{[4-(mor-pholinomethyl)phe-nyl]amino}-1,3,5-triazin-2-yl)-2-methylphe-nyl]-4-(tert-butyl)benz-amide]
6.5 | Cc1c(-c2nc(N)nc(Nc3ccc(C(=O)N4CCOCC4)cc3)n2)cccc1N1Cc2cc(C(C)(C)C)sc2C1=O [Example 42, 5-[3-(4-Amino-6-{[4-(morpholine-4-carbonyl)phenyl]amino}-1,3,5-triazin-2-yl)-2-methylphenyl]-2-(tert-butyl)-4H-thieno[2,3-c]pyrrol-6(5H)-one]
1.7 | Nc1nc(Nc2ccc(CN3CCOCC3)cc2)nc(-c2cccc(N3CCc4cc(C5CC5)cc(F)c4C3=O)c2CO)n1 [Example 45, 2-[3-(4-Amino-6-{[4-(morpho-linomethyl)phe-nyl]amino}-1,3,5-tri-azin-2-yl)-2-(hydroxymeth-yl)phenyl]-6-cyclopro-pyl-8-fluoro-3,4-di-hydroisoquinolin-1(2H)-one]
5.2 | Nc1nc(Nc2ccc(N3CCOCC3)nc2)nc(-c2cccc(N3CCc4cc(C5CC5)cc(F)c4C3=O)c2CO)n1 [Example 46, 2-(3-{4-Amino-6-[(6-morpho-linopyridin-3-yl)amino]-1,3,5-triazin-2-yl}-2-(hydroxymeth-yl)phenyl)-6-cyclopro-pyl-8-fluoro-3,4-dihy-droisoquinolin-1(2H)-one]
1.6 | Nc1nc(Nc2ccc(N3CCC(O)CC3)cc2)nc(-c2cccc(N3CCc4cc(C5CC5)cc(F)c4C3=O)c2CO)n1 [Example 52, 2-[3-(4-Amino-6-{[4-(4-hydroxypiperidin-1-yl)phenyl]amino}-1,3,5-triazin-2-yl)-2-(hy-droxymethyl)phenyl]-6-cyclopropyl-8-fluoro-3,4-dihydroisoquinolin-1(2H)-one]
1.8 | Nc1nc(Nc2ccc(N3CCCC(O)C3)cc2)nc(-c2cccc(N3CCc4cc(C5CC5)cc(F)c4C3=O)c2CO)n1 (centres unmarked) [Example 53, 2-[3-(4-Amino-6-{[4-(3-hydroxypiperidin-1-yl)phenyl]amino}-1,3,5-triazin-2-yl)-2-(hy-droxymethyl)phenyl]-6-cyclopropyl-8-fluoro-3,4-dihydroisoquinolin-1(2H)-one]
3.2 | Cc1c(NC(=O)c2cc3c(s2)CCCC3)cccc1-c1nc(N)nc(Nc2ccc(C(=O)N3CCOCC3)cc2)n1 [Example 66, N-[3-(4-Amino-6-{[4-(morpho-line-4-carbonyl)phenyl]amino}-1,3,5-triazin-2-yl)-2-methyl-phenyl]-4,5,6,7-tetra-hydrobenzo[b]thiophene-2-carboxamide]
1.3 | CC(C)(C)c1cc2c(s1)C(=O)N(c1cccc(-c3nc(N)nc(Nc4ccc(N5CCOCC5)cc4)n3)c1CO)C2 [Example 73, 5-(3-{4-Amino-6-[(4-morpho-linophenyl)amino]-1,3,5-triazin-2-yl}-2-(hydroxymethyl)phe-nyl)-2-(tert-butyl)-4H-thieno[2,3-c]pyrrol-6(5H)-one]
